Pest or weed control, BAW rating and CL rating data for 21 molecules are collected here from patent US20230077362A1 (CORTEVA AGRISCIENCE LLC, priority 2019, published 2023).

Experiment [1] deals with Beet Armyworm (Spodoptera exigua) ("BAW"), second instar larvae. Nature of the experiment: Bioassay on beet armyworm (BAW), 128-well diet tray assay. The class given is in vivo. The note with it: for pest or weed control at 50 µg/cm2: Spodoptera exigua, read-out: BAW rating; for BAW rating: Table ABC, species BAW, C = not tested, D = no activity noticed. The essentials: (§1)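 Second-instar larvae on diet in 128-well trays, covered and held at 25° C, 14:10 light-dark, for five to seven days. Percent mortality scored per well and averaged over eight wells; activity reported as a rating category.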

For experiment [2], the system named is Cabbage Looper (Trichoplusia ni) ("CL"), second instar larvae. Nature of the experiment: Bioassay on cabbage looper (CL), 128-well diet tray assay. The class given is in vivo. The note with it: for pest or weed control at 50 µg/cm2: Trichoplusia ni, read-out: CL rating; for CL rating: Table ABC, species CL, C = not tested, D = no activity noticed. The essentials:
as §1

On to `COC(C)c1ccc(C)cc1N1C(=O)CS/C1=N\C(=O)Nc1ccc(-n2cnc(-c3ccc(OC(F)(F)F)cc3)n2)cc1C` (stereo not drawn) [Compound J467, (Z)-1-(3-(2-(1-Methoxyethyl)-5-methylphenyl)-4-oxothiazolidin-2-ylidene)-3-(2-methyl-4-(3-(4-(trifluoromethoxy)phenyl)-1H-1,2,4-triazol-1-yl)phenyl)urea], for which the pest or weed control at 50 µg/cm2 in experiment [1] and in experiment [2] was 50 to 100% each time.

Consider `Cc1cc(-n2cnc(-c3ccc(OC(F)(F)F)cc3)n2)ccc1NC(=O)/N=C1\SCC(=O)N1c1cc(N(C)C)ccc1C(F)(F)F` [Compound J468, (Z)-1-(3-(5-(Dimethylamino)-2-(trifluoromethyl)phenyl)-4-oxothiazolidin-2-ylidene)-3-(2-methyl-4-(3-(4-(trifluoromethoxy)phenyl)-1H-1,2,4-triazol-1-yl)phenyl)urea], for which the pest or weed control at 50 µg/cm2 in experiment [1] and in experiment [2] was 50 to 100% throughout.

As to `Cc1cc(-n2cnc(-c3ccc(OC(F)(F)F)cc3)n2)ccc1NC(=O)/N=C1\SCC(=O)N1c1cc(N(C)C)ccc1C(C)C` [Compound J469, (Z)-1-(3-(5-(Dimethylamino)-2-isopropylphenyl)-4-oxothiazolidin-2-ylidene)-3-(2-methyl-4-(3-(4-(trifluoromethoxy)phenyl)-1H-1,2,4-triazol-1-yl)phenyl)urea], the pest or weed control at 50 µg/cm2 in experiment [1] and in experiment [2] was 50 to 100% in each case.

With `Cc1ccc(C(C)C)c(N2C(=O)CS/C2=N\C(=O)Nc2ccc(-c3cn(-c4ccc(OC(F)(F)F)cc4)cn3)cc2F)c1` [Compound J473, (Z)-1-(2-Fluoro-4-(1-(4-(trifluoromethoxy)phenyl)-1H-imidazol-4-yl)phenyl)-3-(3-(2-isopropyl-5-methylphenyl)-4-oxothiazolidin-2-ylidene)urea], the pest or weed control at 50 µg/cm2 in experiment [1] and in experiment [2] was 50 to 100% each time.

Regarding `CC(C)c1ccc(N(C)C)cc1N1C(=O)CS/C1=N\C(=O)Nc1ccc(-c2cn(-c3ccc(OC(F)(F)F)cc3)cn2)cc1F` [Compound J474, (Z)-1-(3-(5-(Dimethylamino)-2-isopropylphenyl)-4-oxothiazolidin-2-ylidene)-3-(2-fluoro-4-(1-(4-(trifluoromethoxy)phenyl)-1H-imidazol-4-yl)phenyl)urea], the pest or weed control at 50 µg/cm2 in experiment [1] and in experiment [2] was 50 to 100% each time.

As for `Cc1ccc(OCCC(F)(F)F)c(N2C(=O)CS/C2=N\C(=O)Nc2ccc(-c3cn(-c4ccc(OC(F)(F)F)cc4)cn3)cc2F)c1` [Compound J476, (Z)-1-(2-Fluoro-4-(1-(4-(trifluoromethoxy)phenyl)-1H-imidazol-4-yl)phenyl)-3-(3-(5-methyl-2-(3,3,3-trifluoropropoxy)phenyl)-4-oxothiazolidin-2-ylidene)urea], the pest or weed control at 50 µg/cm2 in experiment [1] and in experiment [2] was 50 to 100% in each case.

Take `Cc1ccc(C(C)C)c(N2C(=O)CS/C2=N\C(=O)Nc2ccc(-c3cn(-c4ccc(OC(F)(F)F)cc4)cn3)cc2C)c1` [Compound J477, (Z)-1-(3-(2-Isopropyl-5-methylphenyl)-4-oxothiazolidin-2-ylidene)-3-(2-methyl-4-(1-(4-(trifluoromethoxy)phenyl)-1H-imidazol-4-yl)phenyl)urea]: the pest or weed control at 50 µg/cm2 in experiment [1] and in experiment [2] was 50 to 100% in each case.

Take `CC(C)c1ccc(N(C)C)cc1N1C(=O)CS/C1=N\C(=O)Nc1ccc(-c2cn(-c3ccc(C(F)(F)F)cn3)cn2)cc1F` [Compound J481, (Z)-1-(3-(5-(Dimethylamino)-2-isopropylphenyl)-4-oxothiazolidin-2-ylidene)-3-(2-fluoro-4-(1-(5-(trifluoromethyl)pyridin-2-yl)-1H-imidazol-4-yl)phenyl)urea]: the pest or weed control at 50 µg/cm2 in experiment [1] and in experiment [2] was 50 to 100% each time.

Regarding `Cc1ccc(C(C)C)c(N2C(=O)CS/C2=N\C(=O)Nc2ccc(-c3cn(-c4ccc(C(F)(F)F)cn4)cn3)cc2F)c1` [Compound J482, (Z)-1-(2-Fluoro-4-(1-(5-(trifluoromethyl)pyridin-2-yl)-1H-imidazol-4-yl)phenyl)-3-(3-(2-isopropyl-5-methylphenyl)-4-oxothiazolidin-2-ylidene)urea], the pest or weed control at 50 µg/cm2 in experiment [1] and in experiment [2] was 50 to 100% throughout.

As to `CN(C)c1ccc(C(F)(F)F)c(N2C(=O)CS/C2=N\C(=O)Nc2ccc(-c3cn(-c4ccc(C(F)(F)F)cn4)cn3)cc2F)c1` [Compound J483, (Z)-1-(3-(5-(Dimethylamino)-2-(trifluoromethyl)phenyl)-4-oxothiazolidin-2-ylidene)-3-(2-fluoro-4-(1-(5-(trifluoromethyl)pyridin-2-yl)-1H-imidazol-4-yl)phenyl)urea], the pest or weed control at 50 µg/cm2 in experiment [1] and in experiment [2] was 50 to 100% in each case.

Regarding `Cc1ccc(OCCC(F)(F)F)c(N2C(=O)CS/C2=N\C(=O)Nc2ccc(-c3cn(-c4ccc(C(F)(F)F)cn4)cn3)cc2F)c1` [Compound J484, (Z)-1-(2-Fluoro-4-(1-(5-(trifluoromethyl)pyridin-2-yl)-1H-imidazol-4-yl)phenyl)-3-(3-(5-methyl-2-(3,3,3-trifluoropropoxy)phenyl)-4-oxothiazolidin-2-ylidene)urea], the pest or weed control at 50 µg/cm2 in experiment [1] and in experiment [2] was 50 to 100% each time.

As to `COC(c1ccc(C)cc1N1C(=O)CS/C1=N\C(=O)Nc1ccc(-c2cn(-c3ccc(C(F)(F)F)cn3)cn2)cc1F)C(F)(F)F` (stereo not drawn) [Compound J485, (Z)-1-(2-Fluoro-4-(1-(5-(trifluoromethyl)pyridin-2-yl)-1H-imidazol-4-yl)phenyl)-3-(3-(5-methyl-2-(2,2,2-trifluoro-1-methoxyethyl)phenyl)-4-oxothiazolidin-2-ylidene)urea], the pest or weed control at 50 µg/cm2 in experiment [1] and in experiment [2] was 50 to 100% each time.

In the case of `CCOC(C)c1ccc(C)cc1N1C(=O)CS/C1=N\C(=O)Nc1ccc(-c2cn(-c3ccc(OC(F)(F)F)cc3)cn2)cc1C` (stereo not drawn) [Compound J486, (Z)-1-(3-(2-(1-Ethoxyethyl)-5-methylphenyl)-4-oxothiazolidin-2-ylidene)-3-(2-methyl-4-(1-(4-(trifluoromethoxy)phenyl)-1H-imidazol-4-yl)phenyl)urea], the pest or weed control at 50 µg/cm2 in experiment [1] and in experiment [2] was 50 to 100% in each case.

Consider `Cc1ccc(COCC(F)(F)F)c(N2C(=O)CS/C2=N\C(=O)Nc2ccc(-c3cn(-c4ccc(C(F)(F)F)cn4)cn3)cc2F)c1` [Compound J487, (Z)-1-(2-Fluoro-4-(1-(5-(trifluoromethyl)pyridin-2-yl)-1H-imidazol-4-yl)phenyl)-3-(3-(5-methyl-2-((2,2,2-trifluoroethoxy)methyl)phenyl)-4-oxothiazolidin-2-ylidene)urea], for which the pest or weed control at 50 µg/cm2 in experiment [1] and in experiment [2] was 50 to 100% throughout.

Consider `Cc1ccc(-c2ccco2)c(N2C(=O)CS/C2=N\C(=O)Nc2ccc(-c3ncn(-c4ccc(OC(F)(F)F)cc4)n3)cc2C)c1` [Compound J488, (Z)-1-(3-(2-(Furan-2-yl)-5-methylphenyl)-4-oxothiazolidin-2-ylidene)-3-(2-methyl-4-(1-(4-(trifluoromethoxy)phenyl)-1H-1,2,4-triazol-3-yl)phenyl)urea], for which the pest or weed control at 50 µg/cm2 in experiment [1] and in experiment [2] was 50 to 100% in each case.

As to `Cc1ccc(-c2ccco2)c(N2C(=O)CS/C2=N\C(=O)Nc2ccc(-c3ncn(-c4ccc(OC(F)(F)F)cc4)n3)cc2F)c1` [Compound J489, (Z)-1-(2-Fluoro-4-(1-(4-(trifluoromethoxy)phenyl)-1H-1,2,4-triazol-3-yl)phenyl)-3-(3-(2-(furan-2-yl)-5-methylphenyl)-4-oxothiazolidin-2-ylidene)urea], the pest or weed control at 50 µg/cm2 in experiment [1] and in experiment [2] was 50 to 100% in each case.

For the molecule `CCOCc1ccc(C)cc1N1C(=O)CS/C1=N\C(=O)Nc1ccc(-c2cn(-c3ccc(OC(F)(F)F)cc3)nn2)cc1` [Compound J493, (Z)-1-(3-(2-(Ethoxymethyl)-5-methylphenyl)-4-oxothiazolidin-2-ylidene)-3-(4-(1-(4-(trifluoromethoxy)phenyl)-1H-1,2,3-triazol-4-yl)phenyl)urea], the pest or weed control at 50 µg/cm2 in experiment [1] and in experiment [2] was 50 to 100% each time.

As to `COC(c1ccc(C)cc1N1C(=O)CS/C1=N\C(=O)Nc1ccc(-c2cn(-c3ccc(OC(F)(F)F)cc3)nn2)cc1)C(F)(F)F` (stereo not drawn) [Compound J494, (Z)-1-(3-(5-Methyl-2-(2,2,2-trifluoro-1-methoxyethyl)phenyl)-4-oxothiazolidin-2-ylidene)-3-(4-(1-(4-(trifluoromethoxy)phenyl)-1H-1,2,3-triazol-4-yl)phenyl)urea], the pest or weed control at 50 µg/cm2 in experiment [1] and in experiment [2] was 50 to 100% each time.

On to `COCc1ccc(N(C)C)cc1N1C(=O)CS/C1=N\C(=O)Nc1ccc(-c2cn(-c3ccc(OC(F)(F)F)cc3)nn2)cc1` [Compound J496, (Z)-1-(3-(5-(Dimethylamino)-2-(methoxymethyl)phenyl)-4-oxothiazolidin-2-ylidene)-3-(4-(1-(4-(trifluoromethoxy)phenyl)-1H-1,2,3-triazol-4-yl)phenyl)urea], for which the pest or weed control at 50 µg/cm2 in experiment [1] and in experiment [2] was 50 to 100% each time.

Regarding `Cc1cc(COCC(F)(F)F)c(N2C(=O)CS/C2=N\C(=O)Nc2ccc(-c3ncn(-c4ccc(S(F)(F)(F)(F)F)cc4)n3)cc2F)cc1C` [Compound J497], in experiment [1], the BAW rating entry is listed as “A (50-100)”. Moreover, the CL rating result in experiment [2] is listed as “A (50-100)”.

Consider `CCCc1ccc(C)cc1N1C(=O)CS/C1=N\C(=O)Nc1ccc(-c2ncn(-c3ccc(S(F)(F)(F)(F)F)cc3)n2)cc1F` [Compound J498], for which the BAW rating result in experiment [1] is listed as “A (50-100)”. Also, the CL rating entry in experiment [2] was “A (50-100)”.
